Reference: patent US11793197B2, “Use of an amphidinol for its fungicidal and/or bactericidal activity on fungi, oomycetes and/or pathogenic bacteria of plants and crop seeds” (Immunrise […], priority 2017, dated 2023)

System: F. graminearum spores
Assay type: cell-based, Fusarium graminearum

## C=C/C=C/CC/C=C/C=C/C=C/CC/C=C/[C@H](O)[C@H](O)[C@@H]1O[C@@H]([C@H](O)[C@H](O)C(=C)CC[C@@H](O)[C@H]2C[C@@H](O)[C@@H](O)[C@H]([C@@H](O)[C@H](O)/C=C(\C)CCC(O)CC(O)C(O)C(C)CC(O)C(O)CC(C)CCC(O)CC(=O)CC(O)CCCC(O)CCCCC(O)CO)O2)C[C@@H](O)[C@H]1O (stereo partly shown) [amphidinol 18]
  antifungal activity against F. graminearum: has antifungal activity
